Here are results for one compound from PMC10089987, “The lipoxygenase OsLOX10 affects seed longevity and resistance to saline-alkaline stress during rice seedlings” (Plant Molecular Biology, 2023).

This assay addresses T1, LOX10 (OsLOX10) (Oryza sativa, UniProt B7EMC8).
T1 construct: full-length CDS (2607 bp, 868 aa) in pET28a(+), His tag, E. coli BL21(DE3) lysate supernatant, about 98 kDa plus tag (band at 100 kDa)
The assay is described as follows: KI-I2 starch staining (colour). The class given is biochemical. The following applies: E. coli lysate supernatant with recombinant LOX10, 0.5 µg protein/µl and dilutions; controls pET28a(+) supernatant and PBS.

T1 sequence (B7EMC8 1-868): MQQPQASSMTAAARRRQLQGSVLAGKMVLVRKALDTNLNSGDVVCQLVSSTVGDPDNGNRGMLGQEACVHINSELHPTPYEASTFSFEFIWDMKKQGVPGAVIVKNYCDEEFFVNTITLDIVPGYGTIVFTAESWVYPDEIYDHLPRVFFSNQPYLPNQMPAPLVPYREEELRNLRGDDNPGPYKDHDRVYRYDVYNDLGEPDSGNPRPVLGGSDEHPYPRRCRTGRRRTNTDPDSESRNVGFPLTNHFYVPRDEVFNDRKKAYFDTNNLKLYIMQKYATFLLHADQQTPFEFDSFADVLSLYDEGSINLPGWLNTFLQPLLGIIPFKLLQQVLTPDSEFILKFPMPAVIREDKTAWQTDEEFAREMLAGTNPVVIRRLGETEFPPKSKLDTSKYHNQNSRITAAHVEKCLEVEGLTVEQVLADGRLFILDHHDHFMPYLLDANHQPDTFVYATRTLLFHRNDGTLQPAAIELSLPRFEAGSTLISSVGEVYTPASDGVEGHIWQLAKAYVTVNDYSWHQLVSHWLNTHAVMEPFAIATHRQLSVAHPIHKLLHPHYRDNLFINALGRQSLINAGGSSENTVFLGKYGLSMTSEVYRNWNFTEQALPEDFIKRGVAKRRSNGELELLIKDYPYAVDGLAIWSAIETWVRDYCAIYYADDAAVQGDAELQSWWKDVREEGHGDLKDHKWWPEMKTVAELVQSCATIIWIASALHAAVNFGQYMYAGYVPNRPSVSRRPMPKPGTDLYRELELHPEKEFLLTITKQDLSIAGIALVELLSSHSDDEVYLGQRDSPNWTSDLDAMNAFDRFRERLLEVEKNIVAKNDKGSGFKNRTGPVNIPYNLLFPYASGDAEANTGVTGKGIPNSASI

Consider `CCCCC/C=C\C/C=C\CCCCCCCC(=O)O` [LA, linoleic acid], for which the “KI-I2 starch staining (colour)” value is reported as “The KI-I2 staining showed that LOX10 could metabolize the substrate LA to produce starch”.
